Measured values taken from patent US7125847B1, “Mechanically activated channel blocker” (priority 2000, dated 2006).
“Also recorded” adds a separate entry of the source.

What was measured:
[1] = test system: whole-cell swelling-activated currents in adult rat astrocytes; assay: Whole-cell (Nystatin perforated patch) currents in adult rat astrocytes, isotonic and hypotonic swelling; assay type: cell-based; settings: for estimated reduction in swelling-activated current: relative to mean before and after controls
Procedure: It is considered that part of the swelling activated currents are attributable to SACs. To illustrate this embodiment, adult rat astrocytes were cultured as described above. Whole cell current was measured by the Nystatin perforated patch. Bath saline was the same as in Example 2. Pipette saline consisted of: KCl 80 mM, K2SO4 30 mM, NaCl 10 mM, MgSO4 3 mM, CaCl20.13 mM, EGTA 0.23 mM and Hepes 10 mM, pH 7.3. Nystatin was dissolved in pipette saline to a final concentration of […]. After patch formation, access resistance was allowed to drop to ˜15 MW (uncompensated), after which the series resistance compensation was set at ˜65%, and prediction was set to ˜75%. Whole cell capacitance measurements ranged from ˜25–50 pF. Whole cell currents were monitored by either a voltage step protocol shown in FIG. 7, or by 600 ms voltage ramps. During hypotonic swelling the cell was perfused initially with isotonic saline (bath saline with 160 mM mannitol replacing 80 mM NaCl) before switching to hypotonic saline (isotonic saline minus 140 mM mannitol). The BPS-8 perfusion system was used to rapidly (<200 ms) change the bathing solution. Peak currents were measured at 3–5 ms into voltage steps.

ventricular myocytes = assay: Myocyte volume by video microscopy in CHF rabbit ventricular myocytes; assay type: cell-based; settings: 0.4 μM
Procedure: Myocyte volume was determined by visualization with an inverted Nikon Diaphot microscope equipped with Hoffman modulation optics and a high resolution TV camera coupled to a video frame-grabber. Images were captured on-line each time a ramp or step voltage clamp protocol was performed using a program written in C and assembler and linked to ASYST voltage-clamp software. A combination of commercial (MOCHA; SPSS) and custom (ASYST) programs were used to determine cell width, length, and area of the image. GsMTx-4 produced a cell volume reduction that is ˜40% of that produced by 1.5 T […] saline.

perfused rabbit hearts = assay: Stretch-induced atrial fibrillation in perfused rabbit hearts
From the text: To illustrate this embodiment, fibrillation was initiated in perfused rabbit hearts with a burst of high-frequency stimulation FIG. 10A. Stretching the atrium chamber increased the incidence and duration of fibrillation (FIG. 10A–C). At pressures above 12 cm H2O, the fibrillation became sustained and the probability of sustained fibrillation (for, longer than 60 s) approached unity. The probability of inducing fibrillation was increased by stimulating the heart with a short burst of high-frequency pacing before each measurement (arrow in FIG. 10b). Perfusion with 170 nM GsMtx-4 suppressed both the incidence (FIG. 10c) and duration (FIG. 10d) of fibrillation in all hearts (n=10).

Sequence: GCLEFWWKCNPNDDKCCRPKLKCSKLFKLCNFSFGK [GsMTx-4]
- change in reversal potential of swelling-activated current ([1]; 5 μM GsMTx-4): +2 mV
- effect on whole-cell currents in isotonic saline ([1]; 5 μM GsMTx-4, 30 to 120 s after perfusion): no significant difference
- reduction of peak swelling-activated current response ([1]; 5 μM, 30 seconds after hypotonic exposure): about 75%
- estimated reduction in swelling-activated current ([1]; 5 μM, at +100 mV): ~38%
- estimated reduction in swelling-activated current ([1]; 5 μM, at −100 mV): ~48%
- cell volume reduction relative to that produced by 1.5 T saline (ventricular myocytes): ~40%
- duration of fibrillation (perfused rabbit hearts; 170 nM perfusion): decreased the average time to spontaneous recovery from AF; also recorded: suppressed
- incidence of fibrillation (perfused rabbit hearts; 170 nM perfusion, n=10 hearts): suppressed
- stretch-induced shortening of the refractory period (perfused rabbit hearts; 170 nM, n=10): did not block
- sustained fibrillation (perfused rabbit hearts; 170 nM, pressures below 17.5 cm H2O): completely inhibited
